In patent US8703961B2, “Thiazole derivatives for the treatment of diseases such as cancer” (Merck Patent GmbH, priority 2009, dated 2014):

What was measured:
Assay in all cases: filter binding kinase assay
Format in all cases: biochemical
[1] = molecular target: T1, INSRR (Homo sapiens, UniProt P14616); details: derived from % inhibition at 1 μM
T1 construct: purchased
Method in brief: (§1)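 Kinase activity is measured at room temperature by filter binding, with incorporated radiolabel counted after acid termination. A 5-minute preincubation of compound, enzyme and substrate precedes addition of ATP from a kinase-dependent stock (5, 20 or 50 […]).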

[2] = molecular target: T2, MAPK13 (Homo sapiens, UniProt O15264); details: derived from % inhibition at 1 μM
T2 construct: purchased
T2 sequence (O15264 1-365): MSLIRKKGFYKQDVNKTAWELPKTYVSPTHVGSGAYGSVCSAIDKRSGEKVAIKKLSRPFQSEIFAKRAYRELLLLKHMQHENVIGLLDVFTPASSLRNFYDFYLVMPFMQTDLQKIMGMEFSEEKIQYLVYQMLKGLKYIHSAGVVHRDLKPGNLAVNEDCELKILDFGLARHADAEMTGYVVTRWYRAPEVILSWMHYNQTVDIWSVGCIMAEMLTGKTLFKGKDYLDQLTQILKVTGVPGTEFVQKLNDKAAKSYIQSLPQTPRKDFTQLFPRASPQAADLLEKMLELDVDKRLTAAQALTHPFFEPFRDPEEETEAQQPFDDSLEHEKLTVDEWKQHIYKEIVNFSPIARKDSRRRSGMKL
Method in brief: as §1

[3] = molecular target: T3, MAPK10 (Homo sapiens, UniProt P53779); details: derived from % inhibition at 1 μM
T3 construct: purchased
T3 sequence (P53779 whole entry, species assumed): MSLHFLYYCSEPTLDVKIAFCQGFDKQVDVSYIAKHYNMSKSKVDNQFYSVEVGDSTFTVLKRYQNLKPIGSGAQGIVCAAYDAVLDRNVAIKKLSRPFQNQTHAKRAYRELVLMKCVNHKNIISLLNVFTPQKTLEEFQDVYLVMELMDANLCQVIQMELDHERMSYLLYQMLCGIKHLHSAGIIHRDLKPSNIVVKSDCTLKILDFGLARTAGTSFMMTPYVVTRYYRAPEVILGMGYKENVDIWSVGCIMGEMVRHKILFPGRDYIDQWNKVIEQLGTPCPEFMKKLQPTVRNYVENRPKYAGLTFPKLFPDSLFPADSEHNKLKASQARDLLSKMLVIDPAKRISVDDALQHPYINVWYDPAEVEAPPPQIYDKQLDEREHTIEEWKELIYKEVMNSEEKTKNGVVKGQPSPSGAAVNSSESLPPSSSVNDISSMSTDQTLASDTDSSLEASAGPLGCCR
Method in brief: as §1

[4] = molecular target: T4, AKT2 (Homo sapiens, UniProt P31751); details: derived from % inhibition at 1 μM
T4 construct: purchased
T4 sequence (P31751 whole entry, species assumed): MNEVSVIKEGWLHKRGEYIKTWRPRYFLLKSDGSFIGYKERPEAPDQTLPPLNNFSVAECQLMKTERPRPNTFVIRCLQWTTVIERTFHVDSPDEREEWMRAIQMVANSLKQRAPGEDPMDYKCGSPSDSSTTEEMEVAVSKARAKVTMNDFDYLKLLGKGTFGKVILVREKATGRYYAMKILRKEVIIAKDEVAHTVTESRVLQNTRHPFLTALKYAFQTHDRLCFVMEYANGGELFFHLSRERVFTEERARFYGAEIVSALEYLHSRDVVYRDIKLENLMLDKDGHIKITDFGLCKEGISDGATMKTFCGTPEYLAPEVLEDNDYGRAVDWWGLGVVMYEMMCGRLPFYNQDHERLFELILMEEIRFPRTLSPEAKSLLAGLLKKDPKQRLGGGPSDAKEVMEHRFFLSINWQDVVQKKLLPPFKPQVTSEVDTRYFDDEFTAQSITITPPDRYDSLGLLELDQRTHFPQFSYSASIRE
Method in brief: as §1

[5] = molecular target: T5, CDK2 (Homo sapiens, UniProt P24941); details: for IC50: derived from % inhibition at 1 μM; for remaining activity at 1 µM: read-out: residual kinase activity CDK2
T5 construct: purchased
Method in brief: as §1

[6] = molecular target: T6, MAP4K2 (GCK) (Homo sapiens, UniProt Q12851); details: for IC50: derived from % inhibition at 1 μM
T6 construct: purchased
T6 sequence (Q12851 1-820): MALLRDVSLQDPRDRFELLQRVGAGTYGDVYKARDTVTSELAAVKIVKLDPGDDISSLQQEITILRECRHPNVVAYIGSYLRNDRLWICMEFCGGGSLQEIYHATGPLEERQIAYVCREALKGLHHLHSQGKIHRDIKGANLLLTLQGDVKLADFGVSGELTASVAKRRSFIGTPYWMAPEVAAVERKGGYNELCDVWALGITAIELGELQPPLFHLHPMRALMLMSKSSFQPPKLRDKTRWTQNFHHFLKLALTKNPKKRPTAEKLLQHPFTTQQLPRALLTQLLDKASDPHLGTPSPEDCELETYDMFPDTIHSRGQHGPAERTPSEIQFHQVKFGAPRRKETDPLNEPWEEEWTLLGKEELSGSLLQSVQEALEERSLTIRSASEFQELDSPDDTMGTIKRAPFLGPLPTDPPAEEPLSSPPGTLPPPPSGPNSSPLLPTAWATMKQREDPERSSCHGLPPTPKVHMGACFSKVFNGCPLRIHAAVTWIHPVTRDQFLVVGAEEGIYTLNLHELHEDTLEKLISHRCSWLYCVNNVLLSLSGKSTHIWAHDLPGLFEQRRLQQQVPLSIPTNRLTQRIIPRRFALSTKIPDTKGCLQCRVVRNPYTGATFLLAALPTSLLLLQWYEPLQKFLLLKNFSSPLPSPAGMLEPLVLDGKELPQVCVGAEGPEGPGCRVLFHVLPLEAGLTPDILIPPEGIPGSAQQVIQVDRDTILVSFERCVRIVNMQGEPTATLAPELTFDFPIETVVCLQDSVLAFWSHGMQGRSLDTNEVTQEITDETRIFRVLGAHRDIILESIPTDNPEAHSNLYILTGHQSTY
Method in brief: as §1

[7] = molecular target: T7, BRSK2 (Homo sapiens, UniProt Q8IWQ3); details: derived from % inhibition at 1 μM
T7 construct: purchased
T7 sequence (Q8IWQ3 1-736): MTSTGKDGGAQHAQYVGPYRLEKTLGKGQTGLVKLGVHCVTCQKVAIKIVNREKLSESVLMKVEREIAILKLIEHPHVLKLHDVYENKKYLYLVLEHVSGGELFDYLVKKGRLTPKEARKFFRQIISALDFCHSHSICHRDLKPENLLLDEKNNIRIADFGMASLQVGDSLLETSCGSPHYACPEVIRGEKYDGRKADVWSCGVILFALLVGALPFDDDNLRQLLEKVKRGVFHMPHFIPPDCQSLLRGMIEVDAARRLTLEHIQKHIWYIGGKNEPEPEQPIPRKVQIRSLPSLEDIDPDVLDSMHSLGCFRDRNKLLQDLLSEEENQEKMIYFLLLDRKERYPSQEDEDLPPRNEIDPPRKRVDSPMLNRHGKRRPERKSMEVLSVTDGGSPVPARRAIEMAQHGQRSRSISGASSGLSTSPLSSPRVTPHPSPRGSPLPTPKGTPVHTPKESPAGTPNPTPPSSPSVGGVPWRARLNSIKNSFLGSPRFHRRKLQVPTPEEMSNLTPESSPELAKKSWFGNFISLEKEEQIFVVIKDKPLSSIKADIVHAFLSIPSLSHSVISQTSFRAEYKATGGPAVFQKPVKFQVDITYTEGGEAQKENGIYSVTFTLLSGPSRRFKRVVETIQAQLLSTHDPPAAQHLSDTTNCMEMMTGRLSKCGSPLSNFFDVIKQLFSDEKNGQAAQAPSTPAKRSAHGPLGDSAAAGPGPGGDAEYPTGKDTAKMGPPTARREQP
Method in brief: as §1

T1 sequence (P14616 27-1297, species assumed): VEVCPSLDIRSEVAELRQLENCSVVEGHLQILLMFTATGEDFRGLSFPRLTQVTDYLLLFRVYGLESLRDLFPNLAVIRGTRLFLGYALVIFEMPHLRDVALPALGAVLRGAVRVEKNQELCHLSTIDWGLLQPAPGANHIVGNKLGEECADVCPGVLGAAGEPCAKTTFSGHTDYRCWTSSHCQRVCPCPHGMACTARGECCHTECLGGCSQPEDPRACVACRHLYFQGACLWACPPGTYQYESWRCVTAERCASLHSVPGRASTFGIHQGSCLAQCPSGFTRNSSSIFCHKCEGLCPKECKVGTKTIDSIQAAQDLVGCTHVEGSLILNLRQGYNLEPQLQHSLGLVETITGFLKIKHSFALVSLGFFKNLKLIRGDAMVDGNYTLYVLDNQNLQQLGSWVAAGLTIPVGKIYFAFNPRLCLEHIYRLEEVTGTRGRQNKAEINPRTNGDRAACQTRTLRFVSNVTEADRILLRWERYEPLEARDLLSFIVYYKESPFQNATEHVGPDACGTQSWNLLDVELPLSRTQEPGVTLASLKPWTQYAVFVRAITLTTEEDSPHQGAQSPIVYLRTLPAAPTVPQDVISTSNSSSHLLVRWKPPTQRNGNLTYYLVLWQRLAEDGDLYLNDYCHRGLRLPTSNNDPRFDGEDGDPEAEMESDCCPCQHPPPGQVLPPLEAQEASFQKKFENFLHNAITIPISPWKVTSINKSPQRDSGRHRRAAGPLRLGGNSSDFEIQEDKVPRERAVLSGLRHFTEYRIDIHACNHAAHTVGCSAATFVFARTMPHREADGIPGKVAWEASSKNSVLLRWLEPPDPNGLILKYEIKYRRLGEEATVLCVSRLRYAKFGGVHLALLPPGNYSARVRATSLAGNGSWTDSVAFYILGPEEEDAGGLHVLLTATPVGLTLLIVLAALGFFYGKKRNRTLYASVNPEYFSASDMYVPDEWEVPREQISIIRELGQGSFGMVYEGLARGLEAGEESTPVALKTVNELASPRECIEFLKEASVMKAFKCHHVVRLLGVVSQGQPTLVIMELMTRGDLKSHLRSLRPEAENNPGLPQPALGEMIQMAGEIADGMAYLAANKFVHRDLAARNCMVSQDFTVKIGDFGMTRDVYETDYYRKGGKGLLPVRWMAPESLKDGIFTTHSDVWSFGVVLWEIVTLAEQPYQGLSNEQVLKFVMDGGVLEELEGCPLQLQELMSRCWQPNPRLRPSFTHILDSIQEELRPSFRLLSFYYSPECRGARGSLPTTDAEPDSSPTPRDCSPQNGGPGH

SMILES | IC50 [1] | IC50 [2] | IC50 [3] | IC50 [4] | IC50 [5] | remaining activity at 1 µM [5] | IC50 [6] | IC50 [7] | remaining activity at 1 µM ([6]; read-out: residual kinase activity GCK)
CC(C)(C)OC(=O)Nc1ncsc1C#CCN1C(=O)c2ccccc2C1=O [Compound A26, tert-butyl{5-[3-(1,3-dioxo-1,3-dihydroisoindol-2-yl)prop-1-ynyl]-thiazol-4-yl}carbamate] | 1 to 10 µM | 10 to 100 µM | > 1 µM | > 1 µM | 0.01 to 1 µM | 28% | 1 to 10 µM | > 1 µM | –
Nc1ncsc1C#Cc1cccc(O)c1 [Compound A27, 3-(4-aminothiazol-5-ylethynyl)phenol] | > 1 µM | 1 to 10 µM | 1 to 10 µM | 1 to 10 µM | 10 to 100 µM | – | 1 to 10 µM | 10 to 100 µM | –
c1ccc(Cc2c[nH]c3ncsc23)cc1 [Compound A7, 6-benzyl-4H-pyrrolo[2,3-d]thiazole] | > 1 µM | 1 to 10 µM | > 1 µM | > 1 µM | 0.01 to 1 µM | 41% | 1 to 10 µM | > 1 µM | –
CC(C)(C)OC(=O)Nc1nc(-c2ccncc2)sc1C#CCN1CCOCC1 [Compound A25, tert-butyl[5-(3-morpholin-4-ylprop-1-ynyl)-2-pyridin-4-ylthiazol-4-yl]-carbamate] | > 1 µM | > 1 µM | > 1 µM | 1 to 10 µM | 10 to 100 µM | – | > 1 µM | > 1 µM | –
Nc1ncsc1C#Cc1cnc2[nH]ccc2c1 [Compound A22, 5-(1H-pyrrolo[2,3-b]pyridin-5-ylethynyl)thiazol-4-ylamine] | 1 to 10 µM | 10 to 100 µM | > 1 µM | > 1 µM | 1 to 10 µM | 52% | 0.01 to 1 µM | > 1 µM | 31%
